Assay results as given in patent publication US20240270723A1, “SUBSTITUTED HETEROCYCLIC COMPOUNDS” (BRISTOL-MYERS SQUIBB COMPANY, priority 2021, published 2024).

Experiments:
in vitro = conditions: human, Caco-2, pH 7.4
[1] = tested on: IFNα-induced pSTAT5 in human whole blood (CD3 positive population); assay: IFNα-Induced STAT Phosphorylation in Human Whole Blood; assay type: cell-based; conditions: 1 h incubation with compound, 1000 U/mL IFNα A/D for 15 min, pSTAT5 in CD3 positive cells, read-out: Human Whole blood IFNa pSTAT5 IC50
Experimental: IFNα-Induced STAT Phosphorylation in Human Whole Blood
After an hour long incubation with compound, human whole blood (drawn with ACD-A as anticoagulant) was stimulated with 1000 U/mL recombinant human IFNα A/D (R&D Systems 11200-2) for 15 min. The stimulation was stopped by adding Fix/Lyse buffer (BD 558049). Cells were stained with a CD3 FITC antibody (BD 555916), washed, and permeabilized on ice using Perm III buffer (BD 558050). Cells were then stained with an Alexa-Fluor 647 pSTAT5 (pY694) antibody (BD 612599) for 60 min prior to analysis on the iQue Plus. The amount of pSTAT5 expression was quantitated by median fluorescence intensity after gating on the CD3 positive population.

Structure (SMILES) | Papp A→B at 2 h, 3 μM (in vitro) [×10⁻⁶ cm/s] | efflux ratio at 2 h, 3 μM (in vitro) | IC50 [1] [nM]
[2H]C([2H])([2H])NC(=O)c1nnc(NC(=O)C2CC2)cc1Nc1ncnc(-c2cnn(C)n2)c1OC [Example 1, 6-(cyclopropanecarboxamido)-4-((5-methoxy-6-(2-methyl-2H-1,2,3-triazol-4-yl)pyrimidin-4-yl)amino)-N-(methyl-d3)pyridazine-3-carboxamide] | 26.1 | 1.8 | 320
[2H]C([2H])([2H])NC(=O)c1nnc(NC(=O)C2CC2)cc1Nc1ccnc(-c2cnn(C3CC3)c2)c1OC [Example 4, 6-(cyclopropanecarboxamido)-4-((2-(1-cyclopropyl-1H-pyrazol-4-yl)-3-methoxypyridin-4-yl)amino)-N-(methyl-d3)pyridazine-3-carboxamide] | 13.8 | 2.8 | 350
[2H]C([2H])([2H])NC(=O)c1nnc(NC(=O)C2CC2)cc1Nc1cncc(-c2cnn(C3CC3)n2)c1OC [Example 5, 6-(cyclopropanecarboxamido)-4-((5-(2-cyclopropyl-2H-1,2,3-triazol-4-yl)-4-methoxypyridin-3-yl)amino)-N-(methyl-d3)pyridazine-3-carboxamide] | 34.2 | 1.1 | 1090

These reach a lower IC50 [1]. Values come first.

Papp A→B at 2 h, 3 μM (in vitro) [×10⁻⁶ cm/s] | efflux ratio at 2 h, 3 μM (in vitro) | IC50 [1] [nM] | Structure (SMILES)
12.2 | 4.9 | 50 | [2H]C([2H])([2H])NC(=O)c1nnc(NC(=O)C2CC2)cc1Nc1ccnc(-c2cnn(C)n2)c1OC [Example 2, 6-(cyclopropanecarboxamido)-4-((3-methoxy-2-(2-methyl-2H-1,2,3-triazol-4-yl)pyridin-4-yl)amino)-N-(methyl-d3)pyridazine-3-carboxamide]
9.8 | 3.3 | 190 | [2H]C([2H])([2H])NC(=O)c1nnc(NC(=O)C2CC2)cc1Nc1ccnc(-c2cnn(C3CC3)n2)c1OC [Example 3, 6-(cyclopropanecarboxamido)-4-((2-(2-cyclopropyl-2H-1,2,3-triazol-4-yl)-3-methoxypyridin-4-yl)amino)-N-(methyl-d3)pyridazine-3-carboxamide]
